Results on five molecules are retold here after patent US20120302740A1, “VINCRISTINE IMMUNOASSAY” (SALADAX BIOMEDICAL INC., priority 2010, published 2012).

Where a name gives a salt, the structure may show the parent alone.

In data set [1] the test system is polyclonal antibodies to vincristine, bleed G1M1. Put plainly: Indirect competitive microtiter plate immunoassay (ELISA), polyclonal antiserum bleed G1M1. In kind it is binding, mouse. The note with it: relative to vincristine, vincristine [5]-BSA coated plates. Here is the method:
(§1) The ELISA method for measuring vincristine concentrations was performed in polystyrene microtiter plates (Nunc MaxiSorp F8 Immunomodules) optimized for protein binding and containing 96 wells per plate. Each well was coated with vincristine [5]-BSA conjugate (prepared as in Example 5) by adding 300 μl, of vincristine [5]-BSA conjugate at 10 μg/mL in 0.05M sodium carbonate, pH 9.6, and incubating for three hours at room temperature. The wells were washed with 0.05M sodium carbonate, pH 9.6 and then were blocked with 375 μL of 5% sucrose, 0.2% sodium caseinate solution for 30 minutes at room temperature. After removal of the blocking solution the plates were dried at 37° C. overnight.
(§2) This procedure is to find the dilution of antibody or anti-serum to be tested for displacement as in Example 9. […] Following the incubation for color development, 50 μL of stop solution (1.5% sodium fluoride in diH2O) was added to each well to stop the color development and after 10 seconds of shaking the absorbance was determined at 650 nm (Molecular Devices Plate Reader). The amount of antibody in a well was proportional to the absorbance measured and was expressed as the dilution (titer) resulting in an absorbance of 1.5. Titers were determined by graphing antibody dilution of the antibody measured (x-axis) vs. absorbance 650 nm (y-axis) and interpolating the titer at an absorbance of 1.5. […]

For data set [2], the system named is monoclonal antibody to vincristine 8B6.23.23. Put plainly: Indirect competitive microtiter plate immunoassay (ELISA), monoclonal antibody 8B6.23.23. In kind it is binding, mouse. The note with it: relative to vincristine, vincristine [5]-BSA coated plates. The procedure:
as §1
(§3) This procedure is to find the dilution of antibody or anti-serum to be tested for displacement as in Example 9. The ELISA method for screening vincristine antibodies (produced in Example 6) was performed with the microtiter plates that were sensitized with vincristine-BSA conjugate prepared in Example 7. The antibody screening assay was performed by diluting the murine serum from test bleeds (as in Example 6a) containing polyclonal vincristine antibodies to 1:2,000, 1:6,000, 1:18,000 and 1:54,000 (volume/volume) in phosphate buffered saline containing 0.1% BSA and 0.01% thimerosal. […] (volume/volume) in phosphate buffered saline containing 0.1% BSA and 0.01% thimerosal. To each well of vincristine-BSA sensitized wells (prepared in Example 7)50 μL phosphate buffered saline containing 0.1% BSA and 0.01% thimerosal and 50 μL of diluted antibody were added and incubated for 10 minutes at room temperature with shaking. During this incubation antibody binds to the vincristine-BSA conjugate passively absorbed in the wells (Example 7). The wells of the plates were washed three times with 0.02 M TRIS, 0.9% NaCl, 0.5% Tween-80 and 0.001% thimerosal, pH 7.8 to remove any unbound antibody. […] Following the incubation for color development, 50 μL of stop solution (1.5% sodium fluoride in diH2O) was added to each well to stop the color development and after 10 seconds of shaking the absorbance was determined at 650 nm (Molecular Devices Plate Reader). The amount of antibody in a well was proportional to the absorbance measured and was expressed as the dilution (titer) resulting in an absorbance of 1.5. Titers were determined by graphing antibody dilution of the antibody measured (x-axis) vs. absorbance 650 nm (y-axis) and interpolating the titer at an absorbance of 1.5. The titer which produced absorbance of 1.5 determined the concentration (dilution) of antibody used in the indirect competitive microtiter plate assay described in Example 9. […]

For data set [3], the system named is antibodies to vincristine. Nature of the data set: Indirect competitive microtiter plate immunoassay (ELISA), pool of antibodies to vincristine. To be noted: for reactivity of the antibodies of this invention (in words): summary of Tables I and II. In kind it is binding, mouse. The procedure:
as §1
This procedure is to find the dilution of antibody or anti-serum to be tested for displacement as in Example 9. The ELISA method for screening vincristine antibodies (produced in Example 6) was performed with the microtiter plates that were sensitized with vincristine-BSA conjugate prepared in Example 7. The antibody screening assay was performed by diluting the murine serum from test bleeds (as in Example 6a) containing polyclonal vincristine antibodies to 1:2,000, 1:6,000, 1:18,000 and 1:54,000 (volume/volume) in phosphate buffered saline containing 0.1% BSA and 0.01% thimerosal. […] (volume/volume) in phosphate buffered saline containing 0.1% BSA and 0.01% thimerosal. To each well of vincristine-BSA sensitized wells (prepared in Example 7)50 μL phosphate buffered saline containing 0.1% BSA and 0.01% thimerosal and 50 μL of diluted antibody were added and incubated for 10 minutes at room temperature with shaking. During this incubation antibody binds to the vincristine-BSA conjugate passively absorbed in the wells (Example 7). The wells of the plates were washed three times with 0.02 M TRIS, 0.9% NaCl, 0.5% Tween-80 and 0.001% thimerosal, pH 7.8 to remove any unbound antibody. […] After an incubation of 10 minutes at room temperature with shaking, during which the goat anti-mouse antibody-HRP enzyme conjugate binds to vincristine antibodies in the wells, the plates were again washed three times to remove unbound goat anti-mouse antibody-HRP enzyme conjugate. To develop a measurable color in the wells washing was followed by the addition of 100 μL of TMB (TMB Substrate, BioFx), the substrate for HRP, to develop color during a 10 minute incubation with shaking at room temperature. Following the incubation for color development, 50 μL of stop solution (1.5% sodium fluoride in diH2O) was added to each well to stop the color development and after 10 seconds of shaking the absorbance was determined at 650 nm (Molecular Devices Plate Reader). The amount of antibody in a well was proportional to the absorbance measured and was expressed as the dilution (titer) resulting in an absorbance of 1.5. Titers were determined by graphing antibody dilution of the antibody measured (x-axis) vs. absorbance 650 nm (y-axis) and interpolating the titer at an absorbance of 1.5. The titer which produced absorbance of 1.5 determined the concentration (dilution) of antibody used in the indirect competitive microtiter plate assay described in Example 9.
Indirect Competitive Microtiter Plate Immunoassay Procedure Determining IC50 and Cross-Reactivity for Antibodies to Vincristine
The ELISA method for determining IC50 values and cross-reactivity was performed with the microtiter plates that were sensitized with vincristine [5]-BSA conjugates as described in Example 7. […]

Data set [4] deals with monoclonal antibody to vincristine 1D12.10. Nature of the data set: Indirect competitive microtiter plate immunoassay (ELISA), monoclonal antibody 1D12.10. In kind it is binding, mouse. The note with it: relative to vincristine, vincristine [5]-BSA coated plates. Here is the method: as §1, §3
Data set [5] concerns polyclonal antibodies to vincristine, bleed G1M4. Nature of the data set: Indirect competitive microtiter plate immunoassay (ELISA), polyclonal antiserum bleed G1M4. Format: binding, mouse. To be noted: relative to vincristine, vincristine [5]-BSA coated plates. The procedure:
as §1, §2

The test system of data set [6] is polyclonal antibodies to vincristine, bleed G1M3. Nature of the data set: Indirect competitive microtiter plate immunoassay (ELISA), polyclonal antiserum bleed G1M3. Format: binding, mouse. To be noted: relative to vincristine, vincristine [5]-BSA coated plates. Here is the method:
as §1, §2

The test system of data set [7] is polyclonal antibodies to vincristine, bleed G2M5. Put plainly: Indirect competitive microtiter plate immunoassay (ELISA), polyclonal antiserum bleed G2M5. In kind it is binding, mouse. To be noted: relative to vincristine, vincristine [5]-BSA coated plates. The procedure: as §1, §2
For data set [8] the following is noted: cited from earlier work.
Data set [9] deals with polyclonal antibodies to vincristine, bleed G2M1. Put plainly: Indirect competitive microtiter plate immunoassay (ELISA), polyclonal antiserum bleed G2M1. Format: binding, mouse. To be noted: relative to vincristine, vincristine [5]-BSA coated plates. The procedure:
as §1, §2

Setting [10] is: single one minute intravenous injection of 1-2 mg per m^2 body surface area.

Regarding `[H][C@@]12C[N@@](CCc3c([nH]c4ccccc34)[C@@](C(=O)OC)(c3cc4c(cc3OC)N(C=O)[C@]3([H])[C@]45CC[N@@]4CC=C[C@@](CC)([C@@H](OC(C)=O)[C@]3(O)C(=O)OC)[C@]45[H])C1)C[C@](O)(CC)C2` [Vincristine, vincristine], the “Cross-reactivity of competitive immunoassay” value (from here on “Cross-reactivity”) in [1], in data set [2], in data set [4], in data set [5], in data set [6] and in data set [7] was 100% each time. Further, the “Cross-reactivity” value in [9] amounted to 100%. For the same molecule, the “reactivity of the antibodies of this invention (in words)” value (shortened to “reactivity … (in words)”) in data set [3] was “substantially selectively reactive”. Besides, the “difference in total dose exposure (inter-/intra-patient variability)” value in data set [8] (Crom et al., 1994) is on record as “up to 40 fold”. In [8] (Gidding et al., 1999, Groninger et al., 2002), the “interpatient variability in clearance” value was “up to 25 fold”.
For the molecule `CC[C@]1(O)C[C@H]2CN(CCc3c([nH]c4ccccc34)[C@@](C(=O)OC)(c3cc4c(cc3OC)N(C=O)[C@H]3[C@@](O)(C(=O)OC)[C@H](OC(C)=O)[C@]5(CC)C=CCN6CC[C@]43[C@@H]65)C2)C1` [Vincristine sulfate], in data set [8] (setting [10]), the elimination half-life was 19 to 155 h and the “time to distribution into tissue” value is ≤ 10 min.
For the molecule `CCC1=C[C@@H]2CN(C1)Cc1c([nH]c3ccccc13)[C@@](C(=O)OC)(c1cc3c(cc1OC)N(C)[C@H]1[C@@](O)(C(=O)OC)[C@H](OC(C)=O)[C@]4(CC)C=CCN5CC[C@]31[C@@H]54)C2` [Vinorelbine, vinorelbine], the figures for the “Cross-reactivity” value in data set [2] and in data set [4] were 0.7% and <0.1%, respectively. Further, the “reactivity … (in words)” value in data set [3] was “substantially non-cross-reactive”.
vindesine: the “Cross-reactivity” value in [2] and in [4] was <0.1% in each case. The “reactivity … (in words)” value in data set [3] is “substantially non-cross-reactive”.
In the case of `CC[C@]1(O)C[C@@H]2CN(CCc3c([nH]c4ccccc34)[C@@](C(=O)OC)(c3cc4c(cc3OC)N(C)[C@H]3[C@@](O)(C(=O)OC)[C@H](OC(C)=O)[C@]5(CC)C=CCN6CC[C@]43[C@@H]65)C2)C1` [Vinblastine, vinblastine], the “Cross-reactivity” value in data set [1] is <0.9%; in data set [2], 0.3%; in data set [4], <0.1%; in [5], <4.1%; in data set [6] it was <3.9%; in data set [7], <2%. In data set [9], the “Cross-reactivity” value is reported as <3.4%. Also, the “percent cross-reactivities relative to vincristine” value in data set [3] (measured with this pool of antibodies) is recorded as “less than 5%”. Moreover, in [3], the “reactivity … (in words)” value is “substantially non-cross-reactive”.
